Reference: patent publication US11707451B2, “Pharmaceutical composition for modified release” (ASTELLAS PHARMA INC., priority 2010, dated 2023)

Assay: Pharmacokinetics (PK) test of immediate release formulation (capsule formulation) in human
Assay type: in vivo
Conditions: healthy subjects; immediate release capsules, 0.1 to 340 mg; FIG. 11
Experimental: The immediate release formulations (capsule formulations) containing 0.1 mg, 1 mg, 5 mg, 20 mg, and 80 mg of the compound A were used in combinations as needed so that the dose of compound A became 0.1 mg, 1 mg, 3 mg, 10 mg, 30 mg, 100 mg, 160 mg, 240 mg, and 340 mg.

Question: Which “relation between maximum plasma concentration (Cmax) and increase in heart rate from the base line” value does the source give for Nc1nc(CC(=O)Nc2ccc(CCNC[C@H](O)c3ccccc3)cc2)cs1 [compound A, (R)-2-(2-aminothiazol-4-yl)-4′-[2-[(2-hydroxy-2-phenylethyl)amino]ethyl]acetic acid anilide] here?
Answer: Its value is “positive correlation”.
